Patent US11332459B2 (TEIJIN PHARMA LIMITED, priority 2017, dated 2022)
Counter-ions that a name gives are not always drawn.

Molecular target: T1, human TRPC6 (Homo sapiens, UniProt Q9Y210)
T1 construct: expressed in transfected cells
T1 sequence (Q9Y210 1-931): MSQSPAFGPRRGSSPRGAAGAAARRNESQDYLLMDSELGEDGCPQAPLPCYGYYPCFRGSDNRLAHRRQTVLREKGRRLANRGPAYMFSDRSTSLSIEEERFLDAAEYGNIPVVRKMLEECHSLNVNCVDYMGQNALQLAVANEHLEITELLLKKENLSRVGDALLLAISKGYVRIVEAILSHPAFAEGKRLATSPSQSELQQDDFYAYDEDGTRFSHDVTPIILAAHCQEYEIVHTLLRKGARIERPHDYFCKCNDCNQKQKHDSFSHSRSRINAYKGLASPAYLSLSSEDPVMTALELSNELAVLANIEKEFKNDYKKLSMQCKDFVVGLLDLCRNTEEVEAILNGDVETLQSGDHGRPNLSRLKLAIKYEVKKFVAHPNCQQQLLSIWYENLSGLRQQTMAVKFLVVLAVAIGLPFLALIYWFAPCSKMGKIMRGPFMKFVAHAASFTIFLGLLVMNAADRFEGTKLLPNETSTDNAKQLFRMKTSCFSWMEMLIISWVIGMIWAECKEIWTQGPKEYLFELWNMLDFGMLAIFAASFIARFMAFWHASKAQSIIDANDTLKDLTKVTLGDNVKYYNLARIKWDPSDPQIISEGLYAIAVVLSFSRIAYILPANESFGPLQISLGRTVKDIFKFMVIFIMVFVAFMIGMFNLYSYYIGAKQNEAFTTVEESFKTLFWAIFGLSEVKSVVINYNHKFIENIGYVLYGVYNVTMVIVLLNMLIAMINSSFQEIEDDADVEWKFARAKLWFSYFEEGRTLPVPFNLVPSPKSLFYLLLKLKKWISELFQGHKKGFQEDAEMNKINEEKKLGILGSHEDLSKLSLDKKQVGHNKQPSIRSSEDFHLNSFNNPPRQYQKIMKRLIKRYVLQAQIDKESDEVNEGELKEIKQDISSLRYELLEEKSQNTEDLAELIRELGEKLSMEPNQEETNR
Assay: TRPC6 calcium flux assay (FLIPR, OAG-stimulated calcium influx)
Type: cell-based
Conditions: HEK293 cells stably transfected with human TRPC6, read-out: hTRPC6 Potency
Method in brief: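 HEK293 cells stably expressing human TRPC6, loaded with calcium dye 90–120 min at RT, then given compound for 25 min before OAG (50 uM final, 0.5% DMSO) in HEPES buffer pH 7.2 with 2 mM CaCl2. Background-subtracted FLIPR peak over 180 s normalized to OAG vs buffer; IC50 from dose plot.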

| Structure (SMILES) | IC50 [nM] |
| --- | --- |
| N[C@@H]1CN(c2nc3cc(F)c(F)cc3n2Cc2cc(-c3cccc(Cl)c3)no2)CC[C@H]1F [Example 263, (3R,4R)-1-(1-((3-(3-chlorophenyl)-1,2-oxazol-5-yl)methyl)-5,6-difluoro-1H-benzimidazol-2-yl)-4-fluoro-3-piperidinamine] | 765 |
| N#Cc1ccc(Cn2c(N3CC[C@@H](F)[C@H](N)C3)nc3c(C#N)cccc32)nc1 [Example 11, 2-((3R,4R)-3-amino-4-fluoropiperidin-1-yl)-1-((5-cyanopyridin-2-yl)methyl)-1H-benzo[d]imidazole-4-carbonitrile] | 1.79 |
| N[C@@H]1CN(c2nc3cc(F)c(F)cc3n2Cc2ccccc2OC(F)F)CC[C@H]1F [Example 348, (3R,4R)-1-(1-(2-(difluoromethoxy)benzyl)-5,6-difluoro-1H-benzimidazol-2-yl)-4-fluoro-3-piperidinamine] | 493 |
| N#Cc1ccc(Cn2c(N3C[C@@H]4NCCO[C@H]4C3)nc3ccccc32)nc1 [Example 101, 6-((2-((4aS,7aS)-hexahydropyrrolo[3,4-b][1,4]oxazin-6(2H)-yl)-1H-benzo[d]imidazol-1-yl)methyl)nicotinonitrile] | > 3750 |
| N[C@@H]1CN(c2nc3cc(F)c(F)cc3n2Cc2ccc(F)c(Cl)c2)CC[C@H]1F [Example 349, (3R,4R)-1-(1-(3-chloro-4-fluorobenzyl)-5,6-difluoro-1H-benzimidazol-2-yl)-4-fluoro-3-piperidinamine] | 215 |
| N#Cc1ccc(Cn2c(N3CC[C@@H]4CCN[C@@H]4C3)nc3ccccc32)nc1 [Example 24, 6-((2-((3aS,7aS)-hexahydro-1H-pyrrolo[2,3-c]pyridin-6(2H)-yl)-1H-benzo[d]imidazol-1-yl)methyl)nicotinonitrile] | 145 |
| N#Cc1ccc(Cn2c(N3CCC(F)(F)[C@H](N)C3)nc3cc(F)c(F)cc32)nc1 [Example 84, (R)-6-((2-(3-amino-4,4-difluoropiperidin-1-yl)-5,6-difluoro-1H-benzo[d]imidazol-1-yl)methyl)nicotinonitrile hydrochloride] | 1.27 |
| COc1ccc2nc(N3CCC[C@@H](N)C3)n(Cc3ccc(C#N)cc3)c2c1 [Example 185, (R)-4-((2-(3-aminopiperidin-1-yl)-6-methoxy-1H-benzo[d]imidazol-1-yl)methyl)benzonitrile] | 3.58 |
| N#Cc1ccc(Cn2c(N3CCC[C@H](N)C3)nc3cc(F)ccc32)nc1 [Example 46, (S)-6-((2-(3-aminopiperidin-1-yl)-5-fluoro-1H-benzo[d]imidazol-1-yl)methyl)nicotinonitrile hydrochloride] | 1.78 |
| N#Cc1ccc(Cn2c(N3CC[C@@H](F)[C@H](N)C3)nc3cc(F)c(F)cc32)c(OC(F)F)c1 [Example 342, 4-((2-((3R,4R)-3-amino-4-fluoro-1-piperidinyl)-5,6-difluoro-1H-benzimidazol-1-yl)methyl)-3-(difluoromethoxy)benzo-nitrile] | 12.1 |
| COc1ccc2nc(N3CC[C@H](F)[C@H](N)C3)n(Cc3ccc(C#N)cc3)c2c1 [Example 403, 4-((2-((3R,4S)-3-amino-4-fluoropiperidin-1-yl)-6-methoxy-1H-benzo[d]imidazol-1-yl)methyl)benzonitrile] | 0.395 |
| N#Cc1ccc(Cn2c(N3CC[C@H](F)[C@H](N)C3)nc3ccccc32)nc1 [Example 73, 6-((2-((3R,4S)-3-amino-4-fluoropiperidin-1-yl)-1H-benzo[d]imidazol-1-yl)methyl)nicotinonitrile] | 1.09 |
| N#Cc1ccc(Cn2c(N3CCC(F)(F)[C@H](NCCO)C3)nc3ccc(F)cc32)nc1 [Example 433, (R)-6-((2-(4,4-difluoro-3-((2-hydroxyethyl)amino)piperidin-1-yl)-6-fluoro-1H-benzo[d]imidazol-1-yl)methyl)nicotinonitrile] | > 3750 |
| CN[C@@H]1CN(c2nc3ccc(F)cc3n2Cc2ccc(C#N)cn2)CCC1(F)F [Example 432, (R)-6-((2-(4,4-difluoro-3-(methylamino)piperidin-1-yl)-6-fluoro-1H-benzo[d]imidazol-1-yl)methyl)nicotinonitrile] | 7.77 |
| Cc1ccc2c(c1)nc(N1CC[C@@H](F)[C@H](N)C1)n2Cc1ccc(C#N)cn1 [Example 110, 6-((2-((3R,4R)-3-amino-4-fluoro-1-piperidinyl)-5-methyl-1H-benzimidazol-1-yl)methyl)-3-pyridinecarbonitrile] | 1.23 |
| CC(c1cccc(C#N)c1)n1c(N2CC[C@@H](F)[C@H](N)C2)nc2cc(F)c(F)cc21 (mixture of isomers) [Example 302, 3-(1-(2-((3R,4R)-3-amino-4-fluoropiperidin-1-yl)-5,6-difluoro-1H-benzo[d]imidazol-1-yl)ethyl)benzonitrile] | 101 |

More lines, now with the values ahead:

| IC50 [nM] | Structure (SMILES) |
| --- | --- |
| > 3750 | N[C@@H]1CN(c2nc3cc(F)c(F)cc3n2CC(=O)N2CCC(C(=O)N3CCCCC3)CC2)CC[C@H]1F [Example 536, 2-(2-((3R,4R)-3-amino-4-fluoropiperidin-1-yl)-5,6-difluoro-1H-benzo[d]imidazol-1-yl)-1-(4-(piperidine-1-carbonyl)piperidin-1-yl)ethan-1-one] |
| 1.52 | CO[C@@H]1CCN(c2nc3ccc(F)cc3n2Cc2ncc(Cl)cn2)C[C@H]1N [Example 454, (3R,4R)-1-(1-((5-chloropyrimidin-2-yl)methyl)-6-fluoro-1H-benzo[d]imidazol-2-yl)-4-methoxypiperidin-3-amine] |
| > 3750 | CN(C(=O)Cn1c(N2CC[C@@H](F)[C@H](N)C2)nc2cc(F)c(F)cc21)C(C)(C)C#N [Example 533, 2-(2-((3R,4R)-3-amino-4-fluoropiperidin-1-yl)-5,6-difluoro-1H-benzo[d]imidazol-1-yl)-N-(2-cyanopropan-2-yl)-N-methylacetamide] |
| 1570 | N[C@@H]1CN(c2nc3ccc(F)cc3n2CC(=O)N2CCOC[C@H]2CO)CC[C@H]1F [Example 686, 2-(2-((3R,4R)-3-amino-4-fluoropiperidin-1-yl)-6-fluoro-1H-benzo[d]imidazol-1-yl)-1-((R)-3-(hydroxymethyl)morpholino) ethan-1-one] |
| 183 | CCC1CN(C(=O)Cn2c(N3CC[C@@H](F)[C@H](N)C3)nc3cc(F)c(F)cc32)CCO1 (stereo partly drawn) [Example 513, 2-(2-((3R,4R)-3-amino-4-fluoropiperidin-1-yl)-5,6-difluoro-1H-benzo[d]imidazol-1-yl)-1-(2-ethylmorpholino)ethan-1-one] |
| 6.73 | C[C@H](C#N)N(C)C(=O)Cn1c(N2CC[C@@H](F)[C@H](N)C2)nc2cc(F)c(F)cc21 [Example 603, 2-(2-((3R,4R)-3-amino-4-fluoropiperidin-1-yl)-5,6-difluoro-1H-benzo[d]imidazol-1-yl)-N-((R)-1-cyanoethyl)-N-methylacetamide] |
| 1030 | CO[C@H]1CCN(c2nc3cc(F)ccc3n2Cc2ncc(Cl)cn2)C[C@H]1N [Example 477, (3R,4S)-1-(1-((5-chloropyrimidin-2-yl)methyl)-5-fluoro-1H-benzo[d]imidazol-2-yl)-4-methoxypiperidin-3-amine] |
| 25.6 | N[C@@H]1CN(c2nc3ccc(F)cc3n2CC(=O)N2CCC2)CC[C@H]1F [Example 503, 2-(2-((3R,4R)-3-amino-4-fluoropiperidin-1-yl)-6-fluoro-1H-benzo[d]imidazol-1-yl)-1-(azetidin-1-yl)ethan-1-one] |
